Values joined by “and” are separate entries in the source; they are usually repeats but may differ in a detail not shown here. Equal entries are not always repeated.
System: 648629-189-R-J1-PDC complex spheroids viability
Assay: Anticancer human tumor 648629-189-R-J1-PDC patient-derived bladder carcinoma cell line growth inhibition [CLK]
Details: for viability, T/C: stronger effect = lower value; active means viability on the fitted dose curve at most 10% of control; inactive means the rest
Outline: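 Patient-derived tumor cells grown as complex spheroids with HUVEC endothelial cells and mesenchymal stem cells, treated with drug combinations. Concentrations descend in half-log steps from near clinical Cmax, or from 10 microM if Cmax unknown.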

[1] = curve of first compound, second compound 0.0316 µM
[2] = curve of first compound, second compound 0.1 µM
[3] = curve of first compound, second compound 0.316 µM
[4] = curve of first compound, second compound 1 µM
[5] = curve of first compound, second compound 3.16 µM
[6] = curve of first compound, second compound 10 µM
[7] = second compound 0.0316 µM, first compound 0.0316 µM
[8] = second compound 0.0316 µM, first compound 0.1 µM
[9] = second compound 0.0316 µM, first compound 0.316 µM
[10] = second compound 0.0316 µM, first compound 1 µM
[11] = second compound 0.0316 µM, first compound 3.16 µM
[12] = second compound 0.0316 µM, first compound 10 µM
[13] = second compound 0.1 µM, first compound 0.0316 µM
[14] = second compound 0.1 µM, first compound 0.1 µM
[15] = second compound 0.1 µM, first compound 0.316 µM
[16] = second compound 0.1 µM, first compound 1 µM
[17] = second compound 0.1 µM, first compound 3.16 µM
[18] = second compound 0.1 µM, first compound 10 µM
[19] = second compound 0.316 µM, first compound 0.0316 µM
[20] = second compound 0.316 µM, first compound 0.1 µM
[21] = second compound 0.316 µM, first compound 0.316 µM
[22] = second compound 0.316 µM, first compound 1 µM
[23] = second compound 0.316 µM, first compound 3.16 µM
[24] = second compound 0.316 µM, first compound 10 µM
[25] = second compound 1 µM, first compound 0.0316 µM
[26] = second compound 1 µM, first compound 0.1 µM
[27] = second compound 1 µM, first compound 0.316 µM
[28] = second compound 1 µM, first compound 1 µM
[29] = second compound 1 µM, first compound 3.16 µM
[30] = second compound 1 µM, first compound 10 µM
[31] = second compound 3.16 µM, first compound 0.0316 µM
[32] = second compound 3.16 µM, first compound 0.1 µM
[33] = second compound 3.16 µM, first compound 0.316 µM
[34] = second compound 3.16 µM, first compound 1 µM
[35] = second compound 3.16 µM, first compound 3.16 µM
[36] = second compound 3.16 µM, first compound 10 µM
[37] = second compound 10 µM, first compound 0.0316 µM
[38] = second compound 10 µM, first compound 0.1 µM
[39] = second compound 10 µM, first compound 0.316 µM
[40] = second compound 10 µM, first compound 1 µM
[41] = second compound 10 µM, first compound 3.16 µM
[42] = second compound 10 µM, first compound 10 µM
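Wherever viability, T/C is given: drug exposure lasted seven days before viability readout; 100% = DMSO vehicle control wells.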

CC1(C)CCC(CN2CCN(c3ccc(C(=O)NS(=O)(=O)c4ccc(NCC5CCOCC5)c([N+](=O)[O-])c4)c(Oc4cnc5[nH]ccc5c4)c3)CC2)=C(c2ccc(Cl)cc2)C1 + CN1CCN(c2cc(C(=O)Nc3cc4cc(-c5cnn(C)c5)ccc4cn3)ccn2)CC1
> 10000 nM: IC50 [1] | IC50 [2]
active: viability, T/C [25] 0.21% | viability, T/C [26] 0.41% | viability, T/C [27] 0.38% | viability, T/C [28] 0.27% | viability, T/C [29] 0.36% | viability, T/C [30] 1.01% | viability, T/C [31] 0.1% | viability, T/C [32] 0.35% | viability, T/C [33] 0.14% | viability, T/C [34] 0.13% | viability, T/C [35] 0.12% | viability, T/C [36] 0.7% | viability, T/C [37] 0.13% | viability, T/C [38] 0.17% | viability, T/C [39] 0.16% | viability, T/C [40] 0.54% | viability, T/C [41] 0.17% | viability, T/C [42] 0.16%
inactive: viability, T/C [7] 114% | viability, T/C [8] 112% | viability, T/C [9] 110% | viability, T/C [10] 97.4% | viability, T/C [11] 86.2% | viability, T/C [12] 66.6% | viability, T/C [13] 112% | viability, T/C [14] 116% | viability, T/C [15] 97.4% | viability, T/C [16] 107% | viability, T/C [17] 91.8% | viability, T/C [18] 56.1% | viability, T/C [19] 37% | viability, T/C [20] 52% | viability, T/C [21] 41.4% | viability, T/C [22] 47.8% | viability, T/C [23] 35.7% | viability, T/C [24] 24.2%
< 31.6 nM: IC50 [3] | IC50 [4] | IC50 [5] | IC50 [6]

CC1COCCN1c1cc(C2(S(C)(=N)=O)CC2)nc(-c2ccnc3[nH]ccc23)n1 (stereo not given) + CNC(=O)c1ccc(Nc2nc(OC3CCCC3)c3c(-c4ccc5nc(C)oc5c4)c[nH]c3n2)c(OC)c1
2410 nM: IC50 [1]
3430 nM: IC50 [2]
< 31.6 nM: IC50 [3] | IC50 [4] | IC50 [5] | IC50 [6]
inactive: viability, T/C [7] 112% | viability, T/C [8] 115% | viability, T/C [9] 98.5% | viability, T/C [10] 83.4% | viability, T/C [11] 38.6% | viability, T/C [12] 19.3% | viability, T/C [13] 90.2% | viability, T/C [14] 96.3% | viability, T/C [15] 92.1% | viability, T/C [16] 74.2% | viability, T/C [17] 53.5% | viability, T/C [18] 21.3% | viability, T/C [19] 28.9% | viability, T/C [20] 34.6% | viability, T/C [21] 34.6% | viability, T/C [22] 32.4% | viability, T/C [23] 22.4% | viability, T/C [24] 15.3% | viability, T/C [25] 20.5% | viability, T/C [26] 25.6% | viability, T/C [27] 19.7% | viability, T/C [28] 19.2% | viability, T/C [29] 18.9% | viability, T/C [30] 16% | viability, T/C [31] 16.4% | viability, T/C [32] 21.8% | viability, T/C [33] 22.3% | viability, T/C [34] 23.1% | viability, T/C [35] 21.7% | viability, T/C [36] 13.9% | viability, T/C [37] 18.6% | viability, T/C [38] 19.7% | viability, T/C [39] 20.8% | viability, T/C [40] 20.1% | viability, T/C [41] 21.9% | viability, T/C [42] 12.4%

CC(CO)NC(=O)c1cc(-c2ccc(Cl)cc2)nn(-c2cnn(C)c2)c1=O (stereo not given) + CNC(=O)c1ccc(Nc2nc(OC3CCCC3)c3c(-c4ccc5nc(C)oc5c4)c[nH]c3n2)c(OC)c1
> 10000 nM: IC50 [1] | IC50 [2]
inactive: viability, T/C [7] 99.5% | viability, T/C [8] 92.6% | viability, T/C [9] 117% | viability, T/C [10] 104% | viability, T/C [11] 88.9% | viability, T/C [12] 88.5% | viability, T/C [13] 90.9% | viability, T/C [14] 87.7% | viability, T/C [15] 90.3% | viability, T/C [16] 76.9% | viability, T/C [17] 90.9% | viability, T/C [18] 82.8% | viability, T/C [19] 31.1% | viability, T/C [20] 28.2% | viability, T/C [21] 29.3% | viability, T/C [22] 30.2% | viability, T/C [23] 26.8% | viability, T/C [24] 21.7% | viability, T/C [25] 16.6% | viability, T/C [26] 19.7% | viability, T/C [27] 18.5% | viability, T/C [28] 18.8% | viability, T/C [29] 22.5% | viability, T/C [30] 18.8% | viability, T/C [31] 18% | viability, T/C [32] 21.2% | viability, T/C [33] 16.1% | viability, T/C [34] 23% | viability, T/C [35] 20.8% | viability, T/C [36] 17.9% | viability, T/C [37] 18.7% | viability, T/C [38] 20.2% | viability, T/C [39] 19.5% | viability, T/C [40] 21.6% | viability, T/C [41] 19.2% | viability, T/C [42] 19.3%
< 31.6 nM: IC50 [3] | IC50 [4] | IC50 [5] | IC50 [6]

Nc1ccn(C2OC(CO)C(O)C2(F)F)c(=O)n1 (stereo not given) + CN1CCN(c2cc(C(=O)Nc3cc4cc(-c5cnn(C)c5)ccc4cn3)ccn2)CC1
inactive: viability, T/C [7] 65.2% | viability, T/C [8] 31.1% | viability, T/C [9] 11.9% | viability, T/C [13] 67.7% | viability, T/C [14] 22.8% | viability, T/C [19] 32.1% | viability, T/C [20] 22.7% | viability, T/C [21] 13%
49.8 nM: IC50 [2]
< 31.6 nM: IC50 [3] | IC50 [4] | IC50 [5] | IC50 [6]
active: viability, T/C [10] 5.88% | viability, T/C [11] 5.69% | viability, T/C [12] 4.49% | viability, T/C [15] 10.1% | viability, T/C [16] 5.67% | viability, T/C [17] 4.53% | viability, T/C [18] 3.3% | viability, T/C [22] 7.45% | viability, T/C [23] 9.18% | viability, T/C [24] 5.35% | viability, T/C [25] 0.19% | viability, T/C [26] 0.38% | viability, T/C [27] 1.02% | viability, T/C [28] 0.31% | viability, T/C [29] 0.14% | viability, T/C [30] 1.01% | viability, T/C [31] 0.09% | viability, T/C [32] 1.1% | viability, T/C [33] 0.11% | viability, T/C [34] 0.09% | viability, T/C [35] 0.1% | viability, T/C [36] 0.39% | viability, T/C [37] 0.12% | viability, T/C [38] 0.13% | viability, T/C [39] 0.17% | viability, T/C [40] 0.17% | viability, T/C [41] 0.28% | viability, T/C [42] 0.17%
52.9 nM: IC50 [1]

COc1ccc([C@@H](O)c2cc(-c3ncnc4cc(N5CCOCC5)ccc34)c(F)cc2Cl)nn1
7050 nM and 6680 nM: IC50 (curve of compound)
inactive: viability, T/C (compound 0.0316 µM) 92.5% and 93.4% | viability, T/C (compound 0.1 µM) 94.4% and 108% | viability, T/C (compound 0.316 µM) 94.7% and 89.7% | viability, T/C (compound 1 µM) 75.6% and 85% | viability, T/C (compound 3.16 µM) 74.8% and 70% | viability, T/C (compound 10 µM) 40.1% and 39.5%

Reference: PubChem BioAssay AID2060602 (Molecular Pharmacology Branch, DTP, NCI, 2025)
